# Measurements published in patent US20210269479A1, “USE OF CY[…] FOR TREATING CANCER” (Hepion Pharmaceuticals, Inc., priority 2020, published 2021).
# Columns and labels:
# [1] = tested on: fibroblastic cells (IPF lung fibroblasts, cardiac fibroblasts, dermal fibroblasts, renal mesangial cells, LX2 hepatic stellate cell line); assay: Procollagen and fibronectin (ECM) secretion from fibroblastic cells, ELISA; type: cell-based
# From the text: For example, as described herein, CRV431 can regulate oncogenes, and have anti-oncogenic activities. CRV431 can decrease production of the extracellular matrix (ECM) molecules, collagen and fibronectin, from fibroblastic cells derived from five cell types, including lung fibroblasts from a patient with idiopathic pulmonary fibrosis (“IPF”), cardiac fibroblasts, dermal (skin) fibroblasts, renal mesangial cells, and the LX2 hepatic stellate cell line. It is known that IPF is an aggressive fibrotic disease in tremendous need of new treatments. […] The extent of inhibition was similar whether or not the cells were stimulated with the profibrotic agent, transforming growth factor-beta (TGFβ), consistent with direct effects on ECM synthesis.
# [2] = tested on: human precision cut liver slices (PCLS); assay: RNA-Seq of PCLS, Stimulation Protocol (TGFb/PDGF + CRV vs TGFb/PDGF + Vehicle); type: cell-based
# Procedure: PCLS were obtained from 5 human donors who underwent resection of liver cancer. Replicate slices were collected from healthy margins of the resections and cultured for 4 or 6 days depending on the experimental protocol. In the Nonstimulation Protocol slices were cultured for 6 days and treated for the entire period with DMSO vehicle or 5 μM CRV431. In the Stimulation Protocol slices were rested for 1 day and then administered the cytokines, TGFβ and PDGF-BB, for 3 days to stimulate inflammation and fibrosis. DMSO vehicle, CRV431 (1 and 5 μM), Alk5i (10 μM), obeticholic acid (5 μM), elafibranor (5 μM), resmetirom (5 μM), and Aramchol (5 μM) were administered individually as drug treatments in the Stimulation Protocol concurrent with TGFβ+PDGF-BB. Culture medium treatments were replaced daily.
# (d) Gene expression by RNA-Seq. RNA sequencing of the complete transcriptome (30 million reads per sample) was conducted on vehicle and 5 μM CRV431 treatment groups from 3 donors both from the Nonstimulation and Stimulation Protocols. Data were analyzed by bioinformatics software programs to identify genes that were differentially expressed between vehicle and CRV431 treatments.
# For the evaluation done for (d), 12 samples corresponding to 3 different donor slides which underwent 4 different treatments were studied. the comparisons carried out in this analysis are: (1) TGFb/PDGF+CRV vs TGFb/PDGF+Vehicle (V), and (2) Non-stimulated+CRV vs Non-stimulated+Vehicle.
# Heatmaps were also generated to plot significant differently expressed genes for the comparison TGFb/PDGF+CRV and TGFb/PDGF+Vehicle (p-adjust<0.05, log fold change>0.5). The heatmap with the samples grouped by group is shown in FIG. 3A to observe the different expression pattern present within the group (blue=vehicle; red=CRV). The same significant genes were also plotted into another heatmap (FIG. 3B) but the samples are now plotted grouped by donor in order to observe the differences between donors (blue=vehicle; red=CRV).
# Significant differently expressed genes that were identified in the comparison TGFb/PDGF+CRV and TGFb/PDGF+Vehicle ([…], log fold change>0.5) are shown in Table 2. The fold change is relative to the treatment (CRV).
# As shown in the PCA analysis, there is a strong effect of the donor. Therefore, each donor was analyzed individually. Counts comparison was performed for TGFb/PDGF+[…] vs TGFb/PDGF+Vehicle by donor. […] Therefore the vehicle group had at least 300 copies less than CRV treatment. In other words, the treatment had at least 300 copies more than the Vehicle. After doing this selection individually for each donor, a venn diagram was plotted showing the overlapping between all three donors.
# So, they had at least 300 copies less in the CRV treatment compared to the vehicle. After doing the selection individually for each donor, a venn diagram was plotted showing the overlapping between all three donors.
# [3] = TGFb/PDGF + CRV vs TGFb/PDGF + Vehicle, 5 μM
# [4] = presence of exogenous TGFβ+PDGF-BB, all donors
smiles,measurement,setting,value
CC[C@@H]1NC(=O)[C@H]([C@H](O)[C@H](C)CCCCCCNC(C)=O)N(C)C(=O)[C@H](C(C)C)N(C)C(=O)[C@H](CC(C)C)N(C)C(=O)[C@H](CC(C)C)N(C)C(=O)[C@@H](C)NC(=O)[C@H](C)NC(=O)[C@H](CC(C)C)N(C)C(=O)[C@H](C(C)C)NC(=O)[C@H](CC(C)C)N(C)C(=O)[C@@H](C)N(C)C1=O [CRV431],procollagen and fibronectin secretion,"[1]; ELISA, with or without TGFβ stimulation",dose-dependently decreased procollagen and fibronectin secretion from all cell types
same,cell viability,[1]; clinically relevant concentrations,without causing any reduction in cell viability
same,decrease of ECM production,"[1]; clinically relevant concentrations, collagen and fibronectin",up to 55%
same,"log2FoldChange, gene AC009053.1",[2]; [3],1.194
same,"log2FoldChange, gene AC134772.2",[2]; [3],−4.561
same,"log2FoldChange, gene ADH1B",[2]; [3],2.156
same,"log2FoldChange, gene ADH1C",[2]; [3],1.869
same,"log2FoldChange, gene ADH4",[2]; [3],2.123
same,"log2FoldChange, gene ADH6",[2]; [3],1.903
same,"log2FoldChange, gene ADIRF",[2]; [3],1.402
same,"log2FoldChange, gene APLNR",[2]; [3],0.844
same,"log2FoldChange, gene ASPG",[2]; [3],0.91
same,"log2FoldChange, gene ATP13A4",[2]; [3],−3.082
same,"log2FoldChange, gene C7",[2]; [3],0.739
same,"log2FoldChange, gene CA11",[2]; [3],−1.573
same,"log2FoldChange, gene CBFA2T2",[2]; [3],1.299
same,"log2FoldChange, gene CD93",[2]; [3],−0.613
same,"log2FoldChange, gene CHST1",[2]; [3],−1.087
same,"log2FoldChange, gene COL5A3",[2]; [3],−0.842
same,"log2FoldChange, gene CXADR",[2]; [3],1.61
same,"log2FoldChange, gene CYP4A11",[2]; [3],1.611
same,"log2FoldChange, gene CYP26A1",[2]; [3],−1.283
same,"log2FoldChange, gene CYP26B1",[2]; [3],−0.656
same,"log2FoldChange, gene DCHS1",[2]; [3],−0.686
same,"log2FoldChange, gene DLL4",[2]; [3],−0.69
same,"log2FoldChange, gene DUOX2",[2]; [3],−2.182
same,"log2FoldChange, gene DVL1",[2]; [3],0.635
same,"log2FoldChange, gene ENSG00000283623 (symbol NA)",[2]; [3],−5.759
same,"log2FoldChange, gene ERVK13-1",[2]; [3],−1.125
same,"log2FoldChange, gene ESAM",[2]; [3],−0.573
same,"log2FoldChange, gene ESM1",[2]; [3],−1.401
same,"log2FoldChange, gene ESR1",[2]; [3],3.688
same,"log2FoldChange, gene F2RL3",[2]; [3],−0.711
same,"log2FoldChange, gene GLYATL1",[2]; [3],1.438
same,"log2FoldChange, gene GPR4",[2]; [3],−0.9
same,"log2FoldChange, gene GRAP",[2]; [3],−0.772
same,"log2FoldChange, gene HIST2H2AA4",[2]; [3],−7.504
same,"log2FoldChange, gene IGHV4-61",[2]; [3],7.957
same,"log2FoldChange, gene IGLON5",[2]; [3],−0.851
same,"log2FoldChange, gene ISLR2",[2]; [3],−1.27
same,"log2FoldChange, gene KDM6A",[2]; [3],0.785
same,"log2FoldChange, gene LAMA4",[2]; [3],−0.939
same,"log2FoldChange, gene LIMS3",[2]; [3],−1.705
same,"log2FoldChange, gene LOXL2",[2]; [3],−0.948
same,"log2FoldChange, gene MCAM",[2]; [3],−0.841
same,"log2FoldChange, gene MEF2C",[2]; [3],−1.013
same,"log2FoldChange, gene MEG3",[2]; [3],−0.853
same,"log2FoldChange, gene MRC2",[2]; [3],−0.773
same,"log2FoldChange, gene MROH2A",[2]; [3],3.641
same,"log2FoldChange, gene MT-CO1",[2]; [3],−0.85
same,"log2FoldChange, gene NID2",[2]; [3],−0.755
same,"log2FoldChange, gene NXPH4",[2]; [3],−0.808
same,"log2FoldChange, gene PAN2",[2]; [3],1.019
same,"log2FoldChange, gene PANK3",[2]; [3],0.687
same,"log2FoldChange, gene PCDH12",[2]; [3],−0.741
same,"log2FoldChange, gene PHF8",[2]; [3],0.709
same,"log2FoldChange, gene PKLR",[2]; [3],2.127
same,"log2FoldChange, gene PLXNA2",[2]; [3],1.326
same,"log2FoldChange, gene POU6F1",[2]; [3],−1.716
same,"log2FoldChange, gene PPP1R16B",[2]; [3],−1.016
same,"log2FoldChange, gene RALGPS2",[2]; [3],0.836
same,"log2FoldChange, gene RBMXL1",[2]; [3],−8.265
same,"log2FoldChange, gene RCCD1",[2]; [3],−1.838
same,"log2FoldChange, gene RHCG",[2]; [3],−0.927
same,"log2FoldChange, gene RPS7P1",[2]; [3],2.668
same,"log2FoldChange, gene SLC4A8",[2]; [3],−2.641
same,"log2FoldChange, gene SLC26A6",[2]; [3],−0.692
same,"log2FoldChange, gene SLC39A5",[2]; [3],1.92
same,"log2FoldChange, gene SMC5",[2]; [3],0.799
same,"log2FoldChange, gene STRA6",[2]; [3],−1.639
same,"log2FoldChange, gene STX16",[2]; [3],1.025
same,"log2FoldChange, gene TDO2",[2]; [3],0.916
same,"log2FoldChange, gene TMEM70",[2]; [3],1.062
same,"log2FoldChange, gene TTYH2",[2]; [3],−1.114
same,"log2FoldChange, gene UBD",[2]; [3],−1.035
same,"log2FoldChange, gene VWA8",[2]; [3],1.514
same,"log2FoldChange, gene ZC3H10",[2]; [3],1.022
same,"log2FoldChange, gene ZDHHC20",[2]; [3],1.207
same,"log2FoldChange, gene ZNF461",[2]; [3],1.391
same,expression of fibrosis-related genes by RNA-Seq,"[2]; collagen genes, collagen hydroxylases and oxidases, ACTA2, VEGF, TIMPs",decreased expression of many fibrosis-related genes
same,"fold change in RNA, DUOX2",[2]; [4],−4.5 fold
same,"fold change in RNA, ESM1",[2]; [4],−2.6 fold
same,"fold change in RNA, LOXL2",[2]; [4],−1.9 fold
same,"fold change in RNA, RCCD1",[2]; [4],−3.6 fold
same,"fold change in RNA, STRA6",[2]; [4],−3.1 fold
same,"fold change in RNA, UBD/FAT10",[2]; [4],−2.0 fold
